According to patent US11427783B2, “Perfuming compositions” (Firmenich SA, priority 2016, dated 2022):
Several values for one entry are separate records, joined by “and”; a condition that tells them apart may be missing. Identical values can stand only once. Counter-ions that a name gives are not always drawn. Like-named read-outs stand apart in the source and are kept apart here.

Columns and labels:
[1] = Volatility of perfuming compounds in air; type: physicochemical
[2] = Table 5, perfuming compounds having a green note
[3] = Table 10, perfuming compounds having a woody note
[4] = Table 6, perfuming compounds having a fruity note
[5] = Table 9, perfuming compounds having a gourmand note
[6] = Table 8, perfuming compounds having a sweet note

Compound	Volatility [1, 2] [μg/l air]	logP (physchem; n-octanol/water)	further results
CC1(C)CC=C(CCC=O)CC1	417.92	3.3	
CCC(=O)O[C@H]1C[C@@H]2CC[C@@]1(C)C2(C)C		4.66	Volatility (μg/l air) [1, 3]: 216.42 μg/l air
C/C=C/C(=O)C1=C(C)C=CCC1(C)C		3.27	Volatility (μg/l air) [1, 4]: 119.10 μg/l air and 91.38 μg/l air; Volatility (μg/l air) [1, 3]: 91.38 μg/l air
CC(C)[C@@H]1CC[C@@H](C)CC1=NO	22.29	2.81	
C[C@@H]1CC[C@H]2[C@H](C)C(=O)O[C@@H]2C1		2.11	Volatility (μg/l air) [1, 5]: 74.03 μg/l air
C/C=C(\C)C(=O)OCC/C=C\CC	168.78	3.96	
CC/C(=C\C[C@H]1CC=C(C)C1(C)C)CO		4.44	Volatility (μg/l air) [1, 3]: 2.75 μg/l air
COC(C)(C)[C@H]1CC=C(C)CC1	993.39	4.59	
CCCC(O)CC[C@@H]1[C@@H](C)CCCC1(C)C (mixture of isomers)		5.42	Volatility (μg/l air) [1, 3]: 2.34 μg/l air
CC(=O)O[C@@H]1C(C)(C)CCC[C@]12CC=C(C)C[C@H]2C (racemic)		6.44	Volatility (μg/l air) [1, 3]: 8.25 μg/l air
CC(=O)O[C@@H]1CC[C@@H]2C(C)(C)CCC[C@@]2(C)C1 (racemic)		5.5	Volatility (μg/l air) [1, 3]: 14.41 μg/l air
C=CC1(C)CCCC(C)(C)O1 (racemic)	23116.66	3.59	
CCCCCC1(C)CCC(C)(C)C1=O (racemic)		4.63	
CC1=CCC(CCC(C)C(C)O)C1(C)C (racemic)		4.68	Volatility (μg/l air) [1, 3]: 5.22 μg/l air
CC1CCC2C(C)(C)C3CC12CCC3(C)O (racemic)			Volatility (μg/l air) [1, 3]: 11.83 μg/l air; logP (physchem): 5.39
CC1COCc2cc3c(cc21)C(C)(C)C(C)C3(C)C (racemic)			Volatility (μg/l air) [1, 4]: 1.59 μg/l air; logP (physchem): 6.57
CC(=O)/C=C/C1C(C)=CCCC1(C)C (racemic)	68.11		logP (physchem): 4.06
C=C1CCCC(C)(C)C1C(=O)OC (racemic)		3.93	
CC/C=C\C[C@H]1C(=O)CC[C@@H]1CC(=O)OC (racemic)		2.33	Volatility (μg/l air) [1, 4]: 1.59 μg/l air
C=CC(O)CCCCC (racemic) [(+−)-1-octen-3-ol]	3030.11	2.33	

Compound	Volatility [1, 2] [μg/l air]	logP (physchem; n-octanol/water)	further results
CC(CO)c1ccccc1 (racemic) [(+−)-2-phenyl-1-propanol]	142.19	1.74	
CCCCCCCCC1CCC(=O)O1 (racemic) [(+−)-5-octyldihydro-2(3H)-furanone]		3.82	Volatility (μg/l air) [1, 4]: 1.44 μg/l air
CCOC(C)OC1CCCCCCCCCCC1 (racemic) [(+−)-(1-ethoxyethoxy)cyclododecane]		6.68	Volatility (μg/l air) [1, 3]: 5.04 μg/l air
O=C1CCCCCCCCCCC(=O)OCCO1 [1,4-dioxacyclohexadecane-5,16-dione]		3.83	Volatility (μg/l air) [1, 6]: 0.46 μg/l air
C/C=C/c1ccc(OC)cc1 [1-methoxy-4-[(1E)-1-propen-1-yl]benzene]			Volatility (μg/l air) [1, 6]: 184.60 μg/l air; Volatility (μg/l air) [1, 5]: 184.60 μg/l air; logP (physchem): 3.58
O=C1CCC2(CCCCC2)O1 [1-oxaspiro[4.5]decan-2-one]		1.66	Volatility (μg/l air) [1, 5]: 62.86 μg/l air
CCOc1cc(C=O)ccc1O [3-ethoxy-4-hydroxybenzaldehyde]			Volatility (μg/l air) [1, 6]: 0.11 μg/l air; logP (physchem): 1.27
CC(C)(C)C1CCC(=O)CC1 [4-(2-methyl-2-propanyl)cyclohexanone]		2.77	Volatility (μg/l air) [1, 3]: 755.28 μg/l air
CC(=O)OC1CCC2C(C)(C)CCCC2(C)C1 (stereo not drawn) [5,5,8a-trimethyldecahydro-2-naphthalenyl acetate]		5.5	Volatility (μg/l air) [1, 3]: 14.41 μg/l air
CC(=O)/C=C/C1=C(C)CCCC1(C)C [(3E)-4-(2,6,6-trimethyl-1-cyclohexen-1-yl)-3-buten-2-one]		3.88	Volatility (μg/l air) [1, 3]: 35.41 μg/l air
CC/C=C\CCOC(=O)c1ccccc1O [(3Z)-3-hexen-1-yl salicylate]	4.34	4.83	
N#C/C=C/c1ccccc1 [(E)-3-PHENYL-2-PROPENENITRILE]			Volatility (μg/l air) [1, 3]: 66.00 μg/l air
CC(=O)OC/C=C/c1ccccc1 [(E)-3-PHENYL-2-PROPENYL ACETATE]			Volatility (μg/l air) [1, 4]: 20.47 μg/l air
CCC(=O)OC/C=C/c1ccccc1 [(E)-3-PHENYL-2-PROPENYL PROPANOATE]			Volatility (μg/l air) [1, 4]: 8.14 μg/l air
CCOCOC1CCCCCCCCCCC1 [(ETHOXYMETHOXY)CYCLODODECANE]			Volatility (μg/l air) [1, 3]: 6.63 μg/l air
CC/C=C\CCO [(Z)-3-HEXEN-1-OL]	5986.62		
CC/C=C\CCOC(C)=O [(Z)-3-HEXENYL ACETATE]	3398.34		
CCCCC/C=C\CCC=O [(Z)-4-DECENAL]	629.54		
CC/C=C\CCCCCO [(Z)-6-NONEN-1-OL]	6.91	3.44	Volatility ([1]; Table 4, watery note): 6.91 μg/l air; logP (physchem): 3.44
CC/C=C\CCCCC=O [(Z)-6-NONENAL]	2431.73		

Compound	Volatility [1, 2] [μg/l air]	logP (physchem; n-octanol/water)	further results
C=CCOC(=O)CCCCC [ALLYL HEXANOATE]		3.62	
CC(C)CC(=O)OCc1ccccc1 [BENZYL 3-METHYLBUTANOATE]			Volatility (μg/l air) [1, 4]: 63.56 μg/l air; Volatility (μg/l air) [1, 6]: 63.56 μg/l air
C/C=C(\C)C(=O)OCc1ccccc1 [BENZYL (E)-2-METHYL-2-BUTENOATE]			Volatility (μg/l air) [1, 4]: 33.88 μg/l air; Volatility (μg/l air) [1, 3]: 33.88 μg/l air
O=COCc1ccccc1 [BENZYL FORMATE]	1339.53		
N#CC(=C1CCCCC1)c1ccccc1 [CYCLOHEXYLIDENE(PHENYL)ACETONITRILE]	0.96		
CCCCSCCCC [DIBUTYL SULFIDE]	2766.10	4.86	
CCOC(=O)C1OC1(C)c1ccccc1 (stereo not drawn) [ETHYL 2,3-EPDXY-3-PHENYLBUTANOATE]			Volatility (μg/l air) [1, 4]: 12.97 μg/l air
CCOC(=O)/C=C/c1ccccc1 [ETHYL (E)-3-PHENYL-2-PROPENOATE]			Volatility (μg/l air) [1, 4]: 20.55 μg/l air
CCOC(C)=O [ETHYL ACETATE]			logP (physchem): 0.8
CCOC(=O)c1ccccc1 [ETHYL BENZOATE]			logP (physchem): 2.51
CCOC(=O)C(C)C [ETHYL ISOBUTYRATE]		2.03	
CCOC(=O)Cc1ccccc1 [ETHYL PHENYLACETATE]			logP (physchem): 2.1
CCCCCCC=O [HEPTANAL]	22184.00	2.15	
COC(=O)/C=C/c1ccccc1 [METHYL (E)-3-PHENYL-2-PROPENOATE]			Volatility (μg/l air) [1, 4]: 61.65 μg/l air
COC(=O)Cc1ccccc1 [METHYL PHENYLACETATE]			Volatility (μg/l air) [1, 6]: 555.30 μg/l air; Volatility (μg/l air) [1, 5]: 555.30 μg/l air
CC(=O)OCc1ccccc1 [benzyl acetate]		2.04	
CCOC(=O)/C(C)=C/C(C)C [ethyl (2E)-2,4-dimethyl-2-pentenoate]		3.35	
CCCCCCC(=O)OCC [ethyl heptanoate]		3.58	
COC(=O)C=C1CCCC1 [methyl cyclopentylideneacetate]		2.02	
(−)-(1S)-2,6,6-TRIMETHYL-BICYCLO[3.1.1]HEPT-2-ENE	33722.60		
